Laboratory results reported in patent publication US7968291B2, “RNA bioassay” (The Hamner Institute for Health Sciences, priority 2002, dated 2011).
Entries after “also recorded” stand apart in the source; their conditions may differ.

Tested on: Sprague_Dawley/Crl:CD (SD)IGS BR rats
Test: Liver histopathology of treated rats
Assay type: in vivo, rat
Settings: 1400 mg/kg oral gavage, 24 hours
Procedure: Four control rats were administered a quantity of methylcellulose vehicle (no acetaminophen) having a volume approximately equal to that received by treated rats. After 24 hours, all rats were euthanized and livers were collected by necropsy. At necropsy, blood samples were collected via the vena cava (approximately 0.5 ml) in microtainer tubes. All livers were then fixed in 10% neutral buffered formalin and processed for histopathology by trimming trimmed, dehydrating, embedding in paraffin, sectioning, mounting on glass slides, and staining with hematoxylin and eosin stains.
Microscopically, there was a moderate centrilobular degeneration which was multifocal in two of the animals and was characterized by hepatocellular degeneration and necrosis, edema fluid, hemorrhages, and infiltration of mononuclear cells and occasional neutrophils in the other two animals. The severity and distribution of the microscopic lesions correlated well with the measured increases in ALT, AST, 5′NT, and albumin RT-PCR.

Hepatocellular Degeneration (individual rats (animals 1-4)): Diffuse; also recorded: Multifocal
SMILES: CC(=O)Nc1ccc(O)cc1 [acetaminophen]
Histopathological analysis of liver (four rats): moderate levels of damage
